Molecules are shown by their SMILES.

Data set [1] has as its system CV-1 cells (FATP promoter luciferase reporter, 300 nM BRL). Kind of data set: ANTCV1 Antagonist Transcription Assay, Test B. It counts as cell-based, African green monkey. To be noted: Chlorocebus sabaeus, 25 μM test compound with 300 nM BRL, 48 hrs, % BRL inhibition, read-out: ANTCV1 INHIB @ 25 μM.
Data set [2] concerns endogenous nuclear receptors in CV-1 cells. The data set is described as follows: CV-1 Native Receptors Transcription Assay (MKNRCV1), Test C. The class given is cell-based, African green monkey. The settings on record: for MKNRCV1 % BRL @ 25 μM: percent activity of BRL 49653; for EC50: Chlorocebus sabaeus, CV-1 cells, 48 hours, unit inferred.
Data set [3] relates to 3T3-L1 preadipocytes. The data set is described as follows: 3T3-L1 Adipocyte Differentiation Assay (ADPDIFF), Test A. It counts as cell-based. The settings on record: BODIPY lipid fluorescence, reported as % of BRL 49653 at 5 μM.
A short description of data set [4]: Blood Glucose Measurement (Glucose Δ), Test D. It counts as in vivo, mice. On the set-up: key to Glucose Δ: change in blood glucose, mg/dL. The settings on record: for Glucose Δ: 4 hours post dose, 4 hour fasted animals, tail vein whole blood; for % BRL (in vivo, beside Glucose Δ): glucose change relative to BRL. The protocol: Test D—Blood Glucose Measurement (Glucose Δ) Glucose is obtained 4 hours post dose via tail vein stick (5 μl whole blood) in awake, 4 hour fasted animals. Blood is drawn by capillary action into a glucose cuvette and read in a HemoCue Glucose Analyzer (Ryan Diagnostics). Blood is diluted 1:2 with saline if glucose levels are greater than 400 mg/dl (meter high range) and results multiplied by two.

One may read the melting point as the temperature of the solid-liquid transition. Compound `Cc1oc(-c2ccccc2)nc1CCOc1ccc(C[C@@H](C(=O)O)n2ccc(-c3ccccc3)c2)cc1` [Example 4, (S)-3-{4-[2-(5-Methyl-2-phenyl-oxazol-4-yl)-ethoxy]-phenyl}-2-(3-phenyl-pyrrol-1-yl)-propionic acid] showed a melting point of 146 to 147 °C.
Compound `Cc1oc(-c2ccccc2)nc1CCOc1ccc(CC(C)(C(=O)O)c2ccsc2)cc1` (stereo not shown) [Example 74, 2-Methyl-3-{4-[2-(5-methyl-2-phenyl-oxazol-4-yl)-ethoxy]-phenyl}-2-thiophen-3-yl-propionic acid] registered a melting point of 165 to 166 °C.
`Cc1oc(-c2ccccc2)nc1CCOc1ccc(CC(F)(C(=O)O)c2ccccc2)cc1` (stereo not shown) [Example 41, 2-Fluoro-3-{4-[2-(5-methyl-2-phenyl-oxazol-4-yl)-ethoxy]-phenyl}-2-phenyl-propionic acid] had a melting point of 163 to 165 °C.
Compound `Cc1oc(-c2ccccc2)nc1CCOc1ccc(CC(C(=O)O)(n2cccc2)C(F)(F)F)cc1` (stereo not shown) [Example 159, 3,3,3-Trifluoro-2-{4-[2-(5-methyl-2-phenyl-oxazol-4-yl)-ethoxy]-benzyl}-2-pyrrol-1-yl-propionic acid] had a melting point of 201 to 203 °C.
Compound `Cc1cc(C(Cc2ccc(CCCc3nc(-c4ccccc4)oc3C)cc2)C(=O)O)on1` (stereo not shown) [Example 104, 2-(3-Methyl-isoxazol-5-yl)-3-{4-[3-(5-methyl-2-phenyl-oxazol-4-yl)-propyl]-phenyl}-propionic acid] yielded a melting point of 133 to 135 °C.
`Cc1oc(-c2ccccc2)nc1CCOc1ccc(CC(C)(C)C(=O)NS(C)(=O)=O)cc1` [Example 75, N-(2,2-Dimethyl-3-{4-[2-(5-methyl-2-phenyl-oxazol-4-yl)-ethoxy]-phenyl}-propionyl)-methanesulfonamide] displayed a melting point of 112 to 113 °C.
In the case of `Cc1oc(-c2ccccc2)nc1CCOc1ccc(CC(C(=O)O)c2nc(-c3ccccc3)oc2C)cc1` (stereo not shown) [Example 79, 2-(5-Methyl-2-phenyl-oxazol-4-yl)-3-{4-[2-(5-methyl-2-phenyl-oxazol-4-yl)-ethoxy]-phenyl}-propionic acid], the melting point came out at 120 °C.
The compound `O=C(O)[C@H](Cc1ccc(CCCN2CCC(c3ccccc3)CC2)cc1)n1cccc1` [Example 131c, (S)-3-{4-[3-(4-Phenyl-piperidin-1-yl)-propyl]-phenyl}-2-pyrrol-1-yl-propionic acid] returned a melting point of 95 to 100 °C.
`Cc1sc(-c2ccccc2)nc1CCOc1ccc(C[C@@H](C(=O)O)n2cccc2)cc1` [Example 18, (S)-3-{4-[2-(5-Methyl-2-phenyl-thiazol-4-yl)-ethoxy]-phenyl}-2-pyrrol-1-yl-propionic acid] registered a melting point of 157 to 158 °C.
In turn, `Cc1oc(-c2ccccc2)nc1CCC(=O)c1ccc(C[C@@H](C(=O)O)n2cccc2)cc1` (stereo in doubt) [Example 31, 3-{4-[3-(5-Methyl-2-phenyl-oxazol-4-yl)-propionyl]-phenyl}-2-pyrrol-1-yl-propionic acid] showed a melting point of 90 to 92 °C.
In turn, `COc1ccc(C(Cc2ccc(OCCc3nc(-c4ccccc4)oc3C)cc2)C(=O)O)cc1` (stereo not shown) [Example 37, 2-(4-Methoxy-phenyl)-3-{4-[2-(5-methyl-2-phenyl-oxazol-4-yl)-ethoxy]-phenyl}-propionic acid] showed a melting point of 114.7 to 116.6 °C.
Consider `Cc1oc(-c2ccccc2)nc1CCOc1ccc(C[C@@](C)(C(=O)O)n2cccc2)cc1` [Example 52], for which the melting point lay within 149.5 to 150.5 °C.
Still for that read-out and setting: for `Cc1oc(-c2ccccc2)nc1CCC(=O)c1ccc(CC(C(=O)O)n2cccc2)cc1` (stereo not shown) [Example 44, 3-{4-[3-(5-Methyl-2-phenyl-oxazol-4-yl)-propionyl]-phenyl}-2-pyrrol-1-yl-propionic acid] the value was 90 to 92 °C.
For `O=C(O)[C@H](Cc1ccc(/C=C/CN2CCC(c3ccccc3)CC2)cc1)n1cccc1` [Example 129d, (S)-3-{4-[(E)-3-(4-Phenyl-piperidin-1-yl)-propenyl]-phenyl}-2-pyrrol-1-yl-propionic acid], the melting point lay within 126 to 130 °C.
On the same count and under the same terms, the same measure for `CC(=O)c1cccn1[C@@H](Cc1ccc(OCCc2nc(-c3ccccc3)oc2C)cc1)C(=O)O` [Example 14, (S)-2-(2-Acetyl-pyrrol-1-yl)-3-{4-[2-(5-methyl-2-phenyl-oxazol-4-yl)-ethoxy]-phenyl}-propionic acid]: 110 to 112 °C.
The compound `CC(C(=O)O)n1ccc2c(OCc3ccccc3)cccc21` (stereo not shown) [Example 60, 2-(4-Benzyloxy-indol-1-yl)-propionic acid] yielded a melting point of 143 to 146 °C.
On to `Cc1oc(-c2ccccc2)nc1CCOc1ccc(CC(C)(C(=O)O)c2ccccc2)cc1` (stereo not shown) [Example 39, 2-Methyl-3-{4-[2-(5-methyl-2-phenyl-oxazol-4-yl)-ethoxy]-phenyl}-2-phenyl-propionic acid], for which the melting point is 178 to 179 °C.
Broadly, the EC50 is the concentration needed to bring the measured effect to its halfway point. Take `Cc1oc(-c2ccccc2)nc1CCOc1ccc(C[C@@H](C(=O)O)c2ccccc2)cc1` [drawing 252]: the inhibition at 25 µM in data set [1] was -104%. Also, in data set [2], the “MKNRCV1 % BRL @ 25 μM” value was determined as 106 % BRL and the EC50 was found to be 150 nM. Further, the “ADPDIFF % BRL @ 5 μM” value in data set [3] worked out at 95 % BRL. Also, in data set [4], the “Glucose Δ” value was −58.8 and the “% BRL (in vivo, beside Glucose Δ)” value is given as 17.8 % BRL.
In the case of `O=C(O)[C@H](Cc1ccc(OCCSc2nc3ccccc3s2)cc1)n1cccc1`, the inhibition at 25 µM in data set [1] was -102%. Moreover, in data set [2], the “MKNRCV1 % BRL @ 25 μM” value is on record as 102 % BRL and a half-maximal effect (EC50) was put at 700 nM. For the same compound, the “ADPDIFF % BRL @ 5 μM” value in data set [3] stood at 97 % BRL. Also, in data set [4], the “Glucose Δ” value is 155.0 and the “% BRL (in vivo, beside Glucose Δ)” value is −66.5 % BRL.
For the compound `CN(CC#Cc1ccc(C[C@@H](C(=O)O)n2cccc2)cc1)c1ccccc1`, in data set [1], the inhibition at 25 µM is -31%. Further, in data set [2], the “MKNRCV1 % BRL @ 25 μM” value came to 92 % BRL and the concentration giving a half-maximal response (EC50) is 2900 nM. Moreover, the “ADPDIFF % BRL @ 5 μM” value in data set [3] stood at 83 % BRL. In data set [4], the “Glucose Δ” value was 182.8 and the “% BRL (in vivo, beside Glucose Δ)” value was −55.3 % BRL.
In turn, `Cc1oc(-c2ccccc2)nc1CCOc1ccc(C[C@@H](C(=O)O)c2cccs2)cc1` (stereo in doubt) (hydrate or solvate) [Example 32, 3-{4-[2-(5-Methyl-2-phenyl-oxazol-4-yl)-ethoxy]-phenyl}-2-thiophen-2-yl-propionic acid] came in with a melting point of 146 to 147 °C.
In the case of `Cc1oc(-c2ccccc2)nc1CCOc1ccc(CC(C(=O)O)c2cccnc2)cc1.Cl` (stereo not shown), in data set [1], the inhibition at 25 µM is -112%. In addition, in data set [2], the “MKNRCV1 % BRL @ 25 μM” value was determined as 58 % BRL and the EC50 came to 400 nM. The “ADPDIFF % BRL @ 5 μM” value in data set [3] came to 132 % BRL. In data set [4], the “Glucose Δ” value is −72.5 and the “% BRL (in vivo, beside Glucose Δ)” value is reported as 31.1 % BRL.
For `Cc1oc(-c2ccccc2)nc1CCCc1ccc(CC(C(=O)O)n2cncn2)cc1` (stereo not shown) [Example 94], the melting point lay within 169 to 171 °C.
Turning to `O=C(O)[C@H](Cc1ccc(C#CCN2CCC(c3ccccc3)CC2)cc1)n1cccc1` [Example 121c, (S)-3-{4-[3-(4-Phenyl-piperidin-1-yl)-prop-1-ynyl]-phenyl}-2-pyrrol-1-yl-propionic acid], the melting point is 201 to 203 °C.
In the case of `Cc1oc(-c2ccccc2)nc1CCOc1ccc(C[C@@](C)(C(=O)O)n2ccc(Br)c2)cc1` (stereo in doubt) [Example 58, 2-(3-Bromo-pyrrol-1-yl)-2-methyl-3-{4-[2-(5-methyl-2-phenyl-oxazol-4-yl)-ethoxy]-phenyl}-propionic acid], the melting point fell in the range of 158 to 159 °C.
With `CCc1nnc(C(Cc2ccc(OCCc3nc(-c4ccccc4)oc3C)cc2)c2ccccc2)o1` (stereo not shown) [Example 43, 2-Ethyl-5-(2-{4-[2-(5-methyl-2-phenyl-oxazol-4-yl)-ethoxy]-phenyl}-1-phenyl-ethyl)-1,3,4-oxadiazole], the melting point is 110 °C.
On to `CN(CCOc1ccc(CC(C(=O)O)c2ccccc2)cc1)c1nc2ccccc2o1.Cl` (stereo not shown), for which, in data set [1], the inhibition at 25 µM is -45%. Moreover, in data set [2], the “MKNRCV1 % BRL @ 25 μM” value is reported as 91 % BRL and the response was half-maximal at 1000 nM (EC50). In addition, the “ADPDIFF % BRL @ 5 μM” value in data set [3] turned out to be 109 % BRL. Moreover, in data set [4], the “Glucose Δ” value was found to be 172.0 and the “% BRL (in vivo, beside Glucose Δ)” value is −52.0 % BRL.
`Cc1oc(-c2ccccc2)nc1CCOc1ccc(C[C@@H](C(=O)O)n2cccc2Cl)cc1`: the inhibition at 25 µM in data set [1] is -17.5%. In data set [2], the “MKNRCV1 % BRL @ 25 μM” value turned out to be 70 % BRL and the EC50 is 10 nM. Besides, the “ADPDIFF % BRL @ 5 μM” value in data set [3] is 86 % BRL. In data set [4], the “Glucose Δ” value turned out to be 54.8 and the “% BRL (in vivo, beside Glucose Δ)” value is recorded as −40.1 % BRL.
On to `Cc1oc(-c2ccccc2)nc1CCOc1ccc(CC(C(=O)O)c2ccc(C(F)(F)F)cc2)cc1` (stereo not shown), for which the inhibition at 25 µM in data set [1] is -49%. In data set [2], the “MKNRCV1 % BRL @ 25 μM” value came out at 78 % BRL and a half-maximal response (EC50) required 200 nM. Further, in data set [3], the “ADPDIFF % BRL @ 5 μM” value stood at 107 % BRL. Also, in data set [4], the “Glucose Δ” value is reported as 246.8 and the “% BRL (in vivo, beside Glucose Δ)” value is recorded as −180.4 % BRL.
Turning to `Cc1oc(-c2ccccc2)nc1CCOc1ccc(CC(C(=O)O)n2ccc(C(=O)c3ccccc3)c2)cc1` (stereo not shown), the inhibition at 25 µM in data set [1] is -20%. In addition, in data set [2], the “MKNRCV1 % BRL @ 25 μM” value worked out at 91 % BRL and it took 2200 nM to reach a half-maximal effect (EC50). For the same compound, the “ADPDIFF % BRL @ 5 μM” value in data set [3] was 102 % BRL. Moreover, in data set [4], the “Glucose Δ” value is given as −84.4 and the “% BRL (in vivo, beside Glucose Δ)” value came out at 60.8 % BRL.

These data come from patent publication US20030171377A1, “Antidiabetic agents” (priority 2001, published 2003).
